# Laboratory results from article PMC10571041, “Activity of Single Insect Olfactory Receptors Triggered by Airborne Compounds Recorded in Self-Assembled Tethered Lipid Bilayer Nanoarchitectures” (ACS Applied Materials & Interfaces, 2023).
# Target: T1, EcorOBP15-m1 (odorant binding protein) (Eupeodes corollae, UniProt A0A8F9RZG6, F82L)
# T1 construct: recombinant protein expressed in E. coli
# T1 sequence (A0A8F9RZG6 22-145 F82L): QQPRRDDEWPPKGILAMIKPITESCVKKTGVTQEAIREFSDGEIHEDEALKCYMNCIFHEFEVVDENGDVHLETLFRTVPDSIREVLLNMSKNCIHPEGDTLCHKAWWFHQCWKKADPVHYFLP
# Assay: competitive fluorescence displacement of 1-NPN
smiles,measurement,value
CCCCCC(=O)OCC [ethyl hexanoate],Kd,7.4 µM
